# From US20240069010A1, “TISSUE ORGANOID BIOPRINTING AND HIGH-THROUGHPUT SCREENING METHODOLOGY” (priority 2020, published 2024)
# Where two headings read alike, the source gives them in different places.
# How the values were obtained:
# [1] = system: BT-474 organoids; assay: Endpoint ATP-release assay (CellTiter-Glo) of organoid viability; type: cell-based; settings: for Organoid viability by endpoint ATP assay, Viability ± SD: BT-474, 72 h of treatment, luminescence relative to 1% DMSO control; for viability at 0.1 µM / viability at 1 µM / viability at 10 µM: Homo sapiens
# Experimental: All drug treatments of 3D organoids were performed in serum-free conditions in MammoCult™ medium supplemented with 1% antibiotic-antimycotic (Gibco 15240-062). A detailed protocol for the drug screening has been published previously in Phan, N. et al. supra; and Nguyen, H. T. L. & Soragni, supra. Briefly, the culture medium was fully removed three days after seeding and replaced with 100 μL of MammoCult™ medium containing the indicated treatments using an automated pipetting system (EpMotion® 96). After treatment, we transferred the organoids to the HSLCI for imaging. […] The media was aspirated from each well and replaced with 50 μL of 5 mg/mL Dispase (Thermo-Fisher) solution to digest the Matrigel. After a 25-minute incubation at 37° C., the plate was placed on an orbital shaker for 5 minutes at 80 RPM. We then added 30 μL of CellTiter-Glo® reagent (Promega), sealed the plate with film, covered the plate with foil to protect from light, shook the plate for 5 minutes at 80 RPM, and incubated at room temperature for an additional 20 minutes. We used a SpectraMax iD3 plate reader to measure luminescence. The program parameters for luminescence readings were 5 minutes of shaking prior to reading, reading all wavelengths, and integrating signal over 500 ms. Organoid viability within each well was calculated by dividing the luminescent signal from each well by the mean luminescence of the control (1% DMSO) wells. Two-tailed independent t-tests were performed to assess the statistical significance of the differences in organoid mass and cell viability. P-values less than 0.05 were deemed significant.
# [2] = system: BT-474 organoids; assay: HSLCI mass tracking of bioprinted organoids in drug screening; type: cell-based; settings: for Organoid Behavior (%) Gained Mass: mass increase >10%; for Organoid Behavior (%) Lost Mass: mass loss >10%; for Organoid Behavior (%) Stable: mass change <10%
# Text: Cells were bioprinted using a CELLINK BioX with a Temperature-Controlled Printhead. Gcode files were written to print the desired single-layer geometry. We wrote standardized blocks of Gcode encode the print path for the repeated geometries. MATLAB (MathWorks, Inc.) was used to integrate these standardized blocks into full Gcode files with the defined coordinates for each well. We used 8-well plates when printing the larger constructs as the depth of the well in a standard 24-well plate prohibited the use of 0.5″ length needles. Large rings were necessary to deposit a sufficient number of cells for RNA-Seq and IHC. Four rings with a diameter of 14.5 mm were printed for RNA sequencing (approximately 200,000 cells total), while four sets of concentric 14.5 mm, 12.5 mm, and 10.5 mm diameter rings were used for IHC analysis (approximately 500,000 cells total). We printed mini-squares with side length 3.9 mm for drug screening and HSLCI imaging. The mini-squares were inscribed within the circular well with sides parallel to the sides of the well plate. The open center of the constructs facilitates automatic manipulation with fluid handling equipment while the sides of the square are positioned to maximize the number of organoids imaged by HSLCI. The bioprinting process utilized the same material deposited for manually seeded organoids. A single cell suspension, aggregates or clusters in a 3:4 mixture of MammoCult™ and Matrigel® was prepared on ice. After vortexing briefly to homogenize, the mixture was transferred into a 3 mL syringe by removing the plunger and capping the opposite end. Once the plunger was replaced, the syringe was inverted, and bubbles were forced out of the tip. The material was then transferred to a room temperature 3 mL bioprinter cartridge (CELLINK) by connecting the syringe and cartridge with a double-sided female Luer lock adapter (CELLINK). Any air bubbles in the syringe were removed and the loaded cartridge was incubated in a rotating incubator (Enviro-Genie, Scientific Industries) for 30 minutes at the print temperature.
# During the incubation period, the printer was sterilized with the built-in UV irradiation function and the printhead was set to the print temperature. […] The well masks were autoclaved prior to use. The masks were inserted into the well plate and pressed in contact with the glass surface. Rubber bands were used to hold the masks in place and ensure conformal contact was maintained throughout the plasma treatment. The well plates were treated with oxygen plasma in a PE-25 (Plasma Etch) for 30-90 seconds, 15 minutes prior to bioprinting. After plasma treatment, the well plate was placed in the bioprinter and Automatic Bed Levelling (ABL) was performed.
# Once the incubation period ended, we attached a 0.5″ 25-gauge needle and loaded the cartridge into the pre-cooled printhead. We primed the needle by extruding a small volume of material at 15 kPa prior to calibrating the printer. Just before printing, we cleared the needle of the gelled material by extruding a small volume using 40 kPa prior to starting the print. To create constructs of the appropriate thicknesses, prints in 8-well plates were extruded at 15 kPa while prints in 96-well plates were extruded at 12-15 kPa. […] After printing, the constructs were incubated at 37° C. for at least 30 minutes to solidify the matrix and 100 μL of MammoCult™ medium was then added.
# The HSLCI platform was installed inside a standard cell culture incubator. For all growth kinetics studies and drug screening, organoids were imaged in 96-well glass-bottom plates (Cellvis P96-1.5H-N) using a 40× objective (Nikon, NA 0.75). Organoids were seeded as single-cell suspensions in a 3:4 mixture of MammoCult™ and Matrigel® as described above and were grown at 37° C. and 5% CO2 in MammoCult™ medium supplemented with 1% antibiotic-antimycotic (Gibco 15240-062).
# [3] = BT-474, 48 h, read-out: Comparisons of cell viability measures by ATP detection assay, Mean mass ± SD
# [4] = BT-474, 72 h, read-out: Organoid viability by endpoint ATP assay, Viability ± SD
smiles,measurement,setting,value
"CN[C@@H]1C[C@H]2O[C@@](C)([C@@H]1OC)n1c3ccccc3c3c4c(c5c6ccccc6n2c5c31)C(=O)NC4 [Staurosporine, staurosporine]","Organoid viability by endpoint ATP assay, Viability ± SD",[1]; 1 μM,near-zero viability
same,"Organoid viability by endpoint ATP assay, Viability ± SD",[1]; 10 μM,near-zero viability
same,viability at 0.1 µM,[1]; [3],58 ± 14%
same,viability at 1 µM,[1]; [3],2 ± 1%
same,viability at 10 µM,[1]; [3],1%
same,viability at 0.1 µM,[1]; [4],58 ± 14%
same,viability at 1 µM,[1]; [4],2 ± 1%
same,viability at 10 µM,[1]; [4],1%
same,"Mean mass of BT-474 organoids, Mean mass ± SD","[2]; 1 μM, 6 hours of treatment",1.38 ± 0.49 ng
same,"Mean mass of BT-474 organoids, Mean mass ± SD","[2]; 1 μM, 48 hours of treatment",0.70 ± 0.26 ng
same,"Mean mass of BT-474 organoids, Mean mass ± SD","[2]; 1 μM, 48 hours of treatment, listed as staurosporine",0.70 ± 0.26 ng
same,"Mean mass of BT-474 organoids, Mean mass ± SD","[2]; 10 μM, 6 hours of treatment",1.46 ± 0.72 ng
same,"Mean mass of BT-474 organoids, Mean mass ± SD","[2]; 10 μM, 48 hours of treatment",0.83 ± 0.72 ng
same,"Mean mass of BT-474 organoids, Mean mass ± SD","[2]; 10 μM, 48 hours of treatment, listed as staurosporine",0.83 ± 0.72 ng
same,Organoid Behavior (%) Gained Mass,"[2]; BT-474 organoids, 0.1 μM, 12 h",27.6%
same,Organoid Behavior (%) Lost Mass,"[2]; BT-474 organoids, 0.1 μM, 12 h",1.7%
same,Organoid Behavior (%) Stable,"[2]; BT-474 organoids, 0.1 μM, 24 h",50.0%
same,Organoid Behavior (%) Gained Mass,"[2]; BT-474 organoids, 0.1 μM, 24 h",45.8%
same,Organoid Behavior (%) Lost Mass,"[2]; BT-474 organoids, 0.1 μM, 24 h",4.2%
same,Organoid Behavior (%) Stable,"[2]; BT-474 organoids, 0.1 μM, 48 h",23.4%
same,Organoid Behavior (%) Gained Mass,"[2]; BT-474 organoids, 0.1 μM, 48 h",70.1%
same,Organoid Behavior (%) Lost Mass,"[2]; BT-474 organoids, 0.1 μM, 48 h",6.5%
same,Organoid Behavior (%) Stable,"[2]; BT-474 organoids, 1 μM, 12 h",47.6%
same,Organoid Behavior (%) Gained Mass,"[2]; BT-474 organoids, 1 μM, 12 h",19.0%
same,Organoid Behavior (%) Gained Mass,"[2]; BT-474 organoids, 1 μM, 12 h, listed as staurosporine",19%
same,Organoid Behavior (%) Stable,"[2]; BT-474 organoids, 1 μM, 24 h",29.5%
same,Organoid Behavior (%) Gained Mass,"[2]; BT-474 organoids, 1 μM, 24 h",13.6%
same,Organoid Behavior (%) Lost Mass,"[2]; BT-474 organoids, 1 μM, 24 h",56.8%
same,Organoid Behavior (%) Stable,"[2]; BT-474 organoids, 1 μM, 48 h",12.0%
same,Organoid Behavior (%) Gained Mass,"[2]; BT-474 organoids, 1 μM, 48 h",4.0%
same,Organoid Behavior (%) Lost Mass,"[2]; BT-474 organoids, 1 μM, 48 h",84.0%
same,reduction in the number of organoids that increased in size,"[2]; BT-474 organoids, 1 μM, after 12 hours, compared to the control",60%
same,Organoid Behavior (%) Stable,"[2]; BT-474 organoids, 10 μM, 12 h",64.3%
same,Organoid Behavior (%) Gained Mass,"[2]; BT-474 organoids, 10 μM, 12 h",7.1%
same,Organoid Behavior (%) Lost Mass,"[2]; BT-474 organoids, 10 μM, 12 h",28.6%
same,Organoid Behavior (%) Stable,"[2]; BT-474 organoids, 10 μM, 24 h",23.9%
same,Organoid Behavior (%) Gained Mass,"[2]; BT-474 organoids, 10 μM, 24 h",19.6%
same,Organoid Behavior (%) Lost Mass,"[2]; BT-474 organoids, 10 μM, 24 h",56.5%
same,Organoid Behavior (%) Gained Mass,"[2]; BT-474 organoids, 10 μM, 48 h",14.8%
same,Organoid Behavior (%) Lost Mass,"[2]; BT-474 organoids, 10 μM, 48 h",66.7%
